The test system of one data set is MCF-7/VP cells. The data set is described as follows: SRB cytotoxicity assay, etoposide-resistant MCF-7/VP cells (MRP1 up-regulated). It is filed as cell-based. Conditions: for IC50: 48 hours, SRB; for RR (relative resistance) MCF7/VP vs MCF7: mean +/- SD. The source says:
(§1) The etoposide-resistant breast cancer cell line MCF-7/VP was used (Schneider et al, Cancer Res, 54, 152). […] ABCC1; Schneider et al, Cancer Res, 54, 152; Perez-Soler et al, Int J Cancer, 71,35). The parental cell line, MCF-7, was used as a control.
In general terms: In SRB staining, fixed cells bind dye roughly in proportion to their protein.

For the next data set, the system named is MCF-7 cells. Put plainly: SRB cytotoxicity assay, parental MCF-7 cells. It is filed as cell-based. The settings on record: read-out: IC50 MCF7 ("non-resistant").
Excerpt: as §1

For another data set, the target named is P-gp (Homo sapiens, UniProt P08183). The settings on record: more potent than cyclosporine; cited from earlier work.
A further data set has as its system 1A9-PTX10 cells. Put plainly: SRB cytotoxicity assay, tubulin mutated paclitaxel-resistant 1A9-PTX10 cells. In kind it is cell-based, human. The settings on record: for IC50: 48 hours exposure, SRB, mean +/- SD, number of experiments in brackets; for RR (relative resistance) 1A9-PTX10 vs 1A9: ratio of the means of the resistant cells compared to the sensitive cells. The text has this: (§2) The tubulin mutated, paclitaxel-resistant human ovarian carcinoma cell line 1A9-PTX10 and its parental paclitaxel-sensitive cell line 1A9 were derived from the A2780 human ovarian carcinoma cell line (J Biol Chem (1997) 272, 17118-17124).

A further data set deals with A129 cells. The data set is described as follows: SRB cytotoxicity assay, parental A129 cells. The settings on record: 48 hours, read-out: IC50 A129 ("non-resistant"). It is filed as cell-based, human.
A further data set concerns 1A9 cells. Put plainly: SRB cytotoxicity assay, parental paclitaxel-sensitive 1A9 cells. In kind it is cell-based, human. Conditions: mean +/- SD, number of experiments in brackets, read-out: IC50 1A9 ("non-resistant").
Excerpt: as §2

The next data set relates to CEM/C2 cells. The data set is described as follows: Calcein AM viability assay (flow cytometry), camptothecin resistant CEM/C2 cells. The settings on record: for IC50: 48 hours, Calcein AM; for RR (relative resistance) CEM/C2 vs CEM: atypical multi-drug resistance and mutant topoisomerase I. It is filed as cell-based, human. The protocol:
(§3) The Camptothecin resistant CEM/C2 cells were derived from the T lymphoblastoid leukemia cell line CCRF/CEM by selection in the presence of Camptohecin in vitro (Kapoor et al., 1995. Oncology Research 7; 83-95, ATCC
(§4) The cells were plated in T-25 flasks in the presence or absence of compound and incubated for 48 hours before termination of the assay. Cells were washed twice with PBS and incubated in 200 μl of a solution of Calcein AM (0.3 nM)/PBS for 90 minutes at 37° C. The cells were washed once with PBS before determining fluorescent units on a FACS can flow cytometer.

A further data set deals with A129 cp80 cells. The data set is described as follows: SRB cytotoxicity assay, cisplatin-resistant A129 cp80 cells. In kind it is cell-based, human. The settings on record: for IC50: 48 hours, SRB.
Another data set deals with CCRF/CEM cells. Put plainly: Calcein AM viability assay (flow cytometry), parental CEM cells. The settings on record: 48 hours, read-out: IC50 CEM ("non-resistant"). It is filed as cell-based, human. The protocol: as §3, §4
Data set [1] concerns NCI-Adr resistant subline. The data set is described as follows: SRB cytotoxicity assay, P-glycoprotein expressing NCI-Adr resistant subline, with and without verapamil. In kind it is cell-based. Conditions: for IC50: 48 hours, SRB; for RR (relative resistance) NCI-Adr resistant −verapamil vs +verapamil: ratio of the means of the resistant cells compared to the sensitive cells.
Protocol: (§5) Briefly, cells were plated in 96 well dishes 24 hours prior to compound addition. Where noted, they were exposed to verapamil for 4 hours prior to compound addition and then throughout the treatment period (48 hours). The assay was terminated with the addition of cold TCA to a final concentration of 10% and the plates were incubated for one hour at 4° C. The plates were then washed 5 times with water and 100 μl of a Sulforhodamine B solution (4%) was added to each well. The plate was then incubated for 10 minutes at room temperature before removal of unbound dye by washing with 1% acetic acid. The bound dye was solubilized with 10 mM Trizma base and the absorbance read at OD570.

Another data set has as its system HT29/MIT cells. The data set is described as follows: SRB cytotoxicity assay, mitoxantrone-resistant HT29/MIT cells (BCRP up-regulated). The settings on record: for IC50: read-out: IC50 HT-29/MIT ("resistant"); for RR (relative resistance) HT-29/MIT vs HT-29: mean +/- SD.
Another data set relates to HT29 cells. The data set is described as follows: SRB cytotoxicity assay, parental HT29 cells. In kind it is cell-based. Conditions: read-out: IC50 HT-29 ("non-resistant").
The next data set has as its system cells in S-phase. The settings on record: in vitro; cited from earlier work.
[2] abbreviates: read-out: IC50 MCF7/VP ("resistant").
Where [3] appears, read: no verapamil, read-out: IC50 NCI-Adr resistant −verapamil ("resistant").
Where [4] appears, read: verapamil 12.5 μg/ml, read-out: IC50 NCI-Adr resistant +verapamil ("non-resistant").
Where [5] appears, read: Homo sapiens, 1A9, 48 hours exposure.
[6] abbreviates: Homo sapiens, NCI/ADR-RES, no verapamil, read-out: IC50 NCI-Adr resistant −verapamil ("resistant").
Setting [7] is: Homo sapiens, NCI/ADR-RES, verapamil 12.5 μg/ml, read-out: IC50 NCI-Adr resistant +verapamil ("non-resistant").

SMILES strings stand for the structures. Where two headings read alike, the source gives them in different places.

Sequence of P-gp (P08183 whole entry): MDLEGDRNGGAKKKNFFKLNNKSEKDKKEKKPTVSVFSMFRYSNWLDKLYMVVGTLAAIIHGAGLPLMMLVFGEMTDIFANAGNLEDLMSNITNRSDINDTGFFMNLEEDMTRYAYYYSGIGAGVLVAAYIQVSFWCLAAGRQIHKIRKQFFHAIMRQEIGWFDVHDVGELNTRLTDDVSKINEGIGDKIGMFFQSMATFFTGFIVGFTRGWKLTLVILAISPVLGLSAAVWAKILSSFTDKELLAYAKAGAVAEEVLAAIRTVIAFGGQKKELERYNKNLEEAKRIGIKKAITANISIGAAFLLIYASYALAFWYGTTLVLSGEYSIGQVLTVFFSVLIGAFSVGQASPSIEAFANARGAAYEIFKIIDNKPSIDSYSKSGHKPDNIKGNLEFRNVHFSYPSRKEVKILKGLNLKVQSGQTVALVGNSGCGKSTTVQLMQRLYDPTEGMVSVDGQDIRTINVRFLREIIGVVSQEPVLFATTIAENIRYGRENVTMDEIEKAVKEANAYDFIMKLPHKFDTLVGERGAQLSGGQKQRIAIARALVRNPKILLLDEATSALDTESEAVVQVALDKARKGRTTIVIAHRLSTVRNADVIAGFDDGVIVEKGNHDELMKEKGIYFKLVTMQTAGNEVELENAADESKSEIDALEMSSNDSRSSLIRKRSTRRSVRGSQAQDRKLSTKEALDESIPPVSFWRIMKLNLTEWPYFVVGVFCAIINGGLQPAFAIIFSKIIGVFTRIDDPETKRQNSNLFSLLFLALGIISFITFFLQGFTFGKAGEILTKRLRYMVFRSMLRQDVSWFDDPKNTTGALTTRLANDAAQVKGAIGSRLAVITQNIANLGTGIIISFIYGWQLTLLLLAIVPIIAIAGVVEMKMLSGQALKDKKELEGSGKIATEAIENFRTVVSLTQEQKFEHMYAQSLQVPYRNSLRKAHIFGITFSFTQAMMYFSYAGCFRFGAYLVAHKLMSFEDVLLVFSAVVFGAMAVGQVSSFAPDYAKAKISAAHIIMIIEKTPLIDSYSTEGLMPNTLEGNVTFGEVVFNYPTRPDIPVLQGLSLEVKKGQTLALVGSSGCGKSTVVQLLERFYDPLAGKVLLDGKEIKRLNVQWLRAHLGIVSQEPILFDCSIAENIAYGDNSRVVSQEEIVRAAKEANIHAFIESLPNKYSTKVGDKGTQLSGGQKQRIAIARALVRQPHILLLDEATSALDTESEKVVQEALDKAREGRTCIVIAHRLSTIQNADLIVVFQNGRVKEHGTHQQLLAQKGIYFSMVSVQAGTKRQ
Protocol for A129 cells: (§6) The P-glycoprotein expressing NCI-Adr resistant subline (Vickers et al., 1989. Mol Endocrinology 3 (1):157-164) was used. […] Briefly, cells were plated in 96 well dishes 24 hours prior to compound addition. Where noted, they were exposed to verapamil for 4 hours prior to compound addition and then throughout the treatment period (48 hours). The assay was terminated with the addition of cold TCA to a final concentration of 10% and the plates were incubated for one hour at 4° C. The plates were then washed 5 times with water and 100 μl of a Sulforhodamine B solution (4%) was added to each well. The plate was then incubated for 10 minutes at room temperature before removal of unbound dye by washing with 1% acetic acid. The bound dye was solubilized with 10 mM Trizma base and the absorbance read at OD570.
(§7) The parental non-mutated cell line A 129 was used as control.
(§8) Cytotoxicty was measured using the SRB assay according to Shekan et al. as described above in Example 1A.
Protocol for A129 cp80 cells: as §6, §7, §8
Protocol for HT29 cells: as §5
(§9) The mitoxantrone-resistant colon carcinoma cell line HT29/MIT was used (Perego et al, Cancer Res, 61, 6034). […] The parental cell line, HT29, was used as a control.
Protocol for HT29/MIT cells: as §5, §9

In the case of `COc1cc([C@@H]2c3cc4c(cc3[C@@H](O[C@@H]3O[C@@H]5CO[C@@H](C)O[C@H]5[C@H](O)[C@H]3O)[C@H]3COC(=O)[C@H]23)OCO4)cc(OC)c1O` [Etoposide, etoposide], the IC50 in the data set on MCF-7/VP cells (Homo sapiens, MCF7-VP) was more than 100000 nM; in the data set on MCF-7 cells (Homo sapiens, MCF7, 48 hours) it was 7200 nM. In the data set on MCF-7/VP cells, the “RR (relative resistance) MCF7/VP vs MCF7” value is listed as more than 20. Further, in the data set with MCF-7/VP cells (range over individual experiments), the “relative resistance in individual experiments, MCF-7/VP vs MCF-7” value was more than 20 fold.

For `C/C=C/C[C@@H](C)C(=O)[C@H]1C(=O)N[C@@H](C(C)C)C(=O)N(C)CC(=O)N(C)[C@@H](CC(C)C)C(=O)N[C@@H](C(C)C)C(=O)N(C)[C@@H](CC(C)C)C(=O)N[C@@H](C)C(=O)N[C@H](C)C(=O)N(C)[C@@H](CC(C)C)C(=O)N(C)[C@@H](CC(C)C)C(=O)N(C)[C@@H](C(C)C)C(=O)N1C` [PSC-833], the “P-gp inhibitor potency relative to cyclosporine” value at P-gp is recorded as 10 times.

For the compound `N.N.[Cl][Pt][Cl]` [Cisplatin, cisplatin], the IC50 in the data set on 1A9-PTX10 cells was 13900 nM; with A129 cells, 130 nM; in the data set with 1A9 cells (48 hours exposure), 8400 nM; in the data set on MCF-7/VP cells (setting [2]), 31200 nM; in the data set on MCF-7 cells (48 hours) it was 28700 nM; in the data set with CEM/C2 cells, 2200 nM. For the same compound, the IC50 was 11600 nM in the data set on A129 cp80 cells, 2600 nM in the data set on CCRF/CEM cells, 13200 nM in [1] (setting [3]) and 13000 nM in data set [1] (setting [4]).

As for `O=C1c2c(O)ccc(O)c2C(=O)c2c(NCCNCCO)ccc(NCCNCCO)c21` [Mitoxantrone, mitoxantrone], the IC50 in the data set with HT29/MIT cells (Homo sapiens, HT-29, 48 h) turned out to be 198000 nM; in the data set on HT29 cells (Homo sapiens, HT-29, 48 hours), 1300 nM. Moreover, the “RR (relative resistance) HT-29/MIT vs HT-29” value in the data set with HT29/MIT cells is 175 +/− 67.

As for `CC(=O)O[C@@]12CO[C@@H]1C[C@H](O)[C@@]1(C)C(=O)[C@H](O)C3=C(C)[C@@H](OC(=O)[C@H](O)[C@@H](NC(=O)OC(C)(C)C)c4ccccc4)C[C@@](O)([C@@H](OC(=O)c4ccccc4)[C@H]21)C3(C)C` [Taxotere, N-debenzoyl-N-tert-butoxycarbonyl-10-deacetyl paclitaxel], the IC50 in the data set with 1A9-PTX10 cells (Homo sapiens, 1A9/ptx-10) worked out at 212 nM; with 1A9 cells (setting [5]) it was 2 nM; in data set [1] (setting [6]), 620 nM; in data set [1] (setting [7]) it was 19 nM.

As for `N.NC1CCCCC1.[Cl-].[Cl-].[Pt+2]` [JM118], the “RR (relative resistance) HT-29/MIT vs HT-29” value with HT29/MIT cells was 1.3 +/− 0.1. The IC50 in the data set with HT29/MIT cells (48 hours, SRB) amounted to 6000 nM; with 1A9-PTX10 cells, 1500 nM; in the data set with A129 cells, 170 nM; in the data set with 1A9 cells (48 hours exposure) it was 500 nM; with MCF-7/VP cells (setting [2]) it was 1300 nM; in the data set with HT29 cells (48 hours) it was 4500 nM. For the same compound, the IC50 in the data set on MCF-7 cells (48 hours) was 1200 nM; in the data set with CEM/C2 cells, 500 nM; in the data set on A129 cp80 cells it was 430 nM; in the data set with CCRF/CEM cells, 430 nM; in data set [1] (setting [3]), 2100 nM; in [1] (setting [4]) it was 2300 nM. In addition, in the data set with 1A9-PTX10 cells, the “RR (relative resistance) 1A9-PTX10 vs 1A9” value is reported as 3.1. The “RR (relative resistance) MCF7/VP vs MCF7” value in the data set with MCF-7/VP cells is 1.1 +/− 0.1. Further, the “RR (relative resistance) CEM/C2 vs CEM” value in the data set on CEM/C2 cells is 1.18. For the same compound, the “RR (relative resistance) A129 cp80 vs A129” value with A129 cp80 cells (cisplatin resistance mechanism) turned out to be 2.6. Further, the “RR (relative resistance) NCI-Adr resistant −verapamil vs +verapamil” value in data set [1] is 1.1.

`CC(=O)O[C@H]1C(=O)[C@@]2(C)[C@H]([C@H](OC(=O)c3ccccc3)[C@]3(O)C[C@H](OC(=O)[C@H](O)[C@@H](NC(=O)c4ccccc4)c4ccccc4)C(C)=C1C3(C)C)[C@]1(OC(C)=O)CO[C@@H]1C[C@@H]2O` [Paclitaxel, paclitaxel]: the IC50 is 213 nM in the data set with 1A9-PTX10 cells (Homo sapiens, 1A9/ptx-10); 5 nM in the data set on 1A9 cells (setting [5]); 1420 nM in [1] (setting [6]); 31 nM in data set [1] (setting [7]). Moreover, the “RR (relative resistance) 1A9-PTX10 vs 1A9” value in the data set on 1A9-PTX10 cells is listed as 42.6. In addition, in data set [1], the “RR (relative resistance) NCI-Adr resistant −verapamil vs +verapamil” value worked out at 46.

Turning to `COc1cccc2c1C(=O)c1c(O)c3c(c(O)c1C2=O)C[C@@](O)(C(=O)CO)C[C@@H]3O[C@H]1C[C@H](N)[C@H](O)[C@H](C)O1` [Adriamycin, adriamycin], the IC50 in [1] (setting [6]) was determined as 650 nM; in data set [1] (setting [7]) it was 75000 nM. Moreover, in [1] (individual experiments), the “relative resistance, NCI-Adr resistant subline without vs with verapamil” value is recorded as 115 fold. Besides, in data set [1], the “RR (relative resistance) NCI-Adr resistant −verapamil vs +verapamil” value was 115.

Take `CC[C@@]1(O)C(=O)OCc2c1cc1n(c2=O)Cc2cc3ccccc3nc2-1` [Camptothecin, camptothecin]: the “sensitivity to camptothecin of cells in S-phase relative to cells in G1 or G2” value with cells in S-phase is 100-1000 times. Further, the IC50 was 6750 nM with CEM/C2 cells (Homo sapiens, CEM/C2) and 5 nM with CCRF/CEM cells (Homo sapiens, CCRF-CEM). In addition, the “RR (relative resistance) CEM/C2 vs CEM” value in the data set with CEM/C2 cells is listed as 1500.

These data come from US20080058411A1, “Methods For Treating Resistant Or Refractory Tumors” (GPC Biotech AG, priority 2004, published 2008).
